Where “and” joins values, the source holds several entries; their conditions need not be identical. Equal values may be shown once. Read-outs that look alike come from different tables or passages of the source. Square brackets hold non-standard residues; d marks the D form. Peptide text beside a SMILES is read from it. Gly(N-(CH2)3-guanidino) = N=C(N)NCCCNCC(=O)O; Sar = CNCC(=O)O
How the values were obtained:
mMC3R = mMC3R (Mus musculus, UniProt P33033); settings: for mMC3R pA2: antagonist, Schild analysis with NDP-MSH
mMC3R, sequence (P33033 whole entry): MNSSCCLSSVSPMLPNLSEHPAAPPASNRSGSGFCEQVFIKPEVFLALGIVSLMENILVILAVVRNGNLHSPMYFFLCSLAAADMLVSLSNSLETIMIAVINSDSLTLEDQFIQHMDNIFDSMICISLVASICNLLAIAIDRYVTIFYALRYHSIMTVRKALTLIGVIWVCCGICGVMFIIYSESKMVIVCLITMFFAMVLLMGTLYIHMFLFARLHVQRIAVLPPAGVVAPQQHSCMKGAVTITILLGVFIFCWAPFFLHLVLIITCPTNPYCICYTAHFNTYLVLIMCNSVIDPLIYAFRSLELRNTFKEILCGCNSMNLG

mMC5R = mMC5R (Mus musculus, UniProt P41149); settings: for mMC5R pA2: antagonist, Schild analysis with NDP-MSH, ± SEM
mMC5R, sequence (P41149 whole entry): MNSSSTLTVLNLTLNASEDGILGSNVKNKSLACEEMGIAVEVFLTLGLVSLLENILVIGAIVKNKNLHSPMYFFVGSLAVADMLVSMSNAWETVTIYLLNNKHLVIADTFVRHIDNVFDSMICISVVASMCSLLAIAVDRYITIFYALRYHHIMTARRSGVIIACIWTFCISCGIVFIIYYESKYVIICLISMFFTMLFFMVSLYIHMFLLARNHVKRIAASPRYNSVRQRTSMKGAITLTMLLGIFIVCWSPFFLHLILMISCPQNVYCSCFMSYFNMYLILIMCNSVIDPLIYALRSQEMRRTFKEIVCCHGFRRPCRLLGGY

mMC1R [1] = target: T1, mMC1R (Mus musculus, UniProt Q01727); assay: cAMP AlphaScreen bioassay, HEK293 cells stably expressing mMC1R; settings: for mMC1R percent maximal stimulatory response: @ 100 μM, EC50 not determinable; for EC50: read-out: mMC1R EC50, Example 2 (Table 7, first EC50 column), ± SEM, >100,000 = no agonist activity up to 100 μM
T1 sequence (Q01727 whole entry): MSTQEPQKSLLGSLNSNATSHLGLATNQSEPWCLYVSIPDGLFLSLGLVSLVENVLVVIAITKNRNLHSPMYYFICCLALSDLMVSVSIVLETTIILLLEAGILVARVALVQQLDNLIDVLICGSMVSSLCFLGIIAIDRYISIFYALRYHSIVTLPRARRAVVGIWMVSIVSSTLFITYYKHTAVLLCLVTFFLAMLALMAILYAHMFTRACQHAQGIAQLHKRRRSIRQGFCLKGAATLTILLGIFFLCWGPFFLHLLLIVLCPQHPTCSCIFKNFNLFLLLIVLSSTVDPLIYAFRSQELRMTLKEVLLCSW

hMC4R [2] = target: T2, hMC4R (Homo sapiens, UniProt P32245); assay: cAMP AlphaScreen bioassay, HEK293 cells stably expressing hMC4R; type: cell-based; design: expressed in transfected cells; settings: for hMC4R pA2: antagonist pA2, Schild analysis with agonist NDP-MSH, ± SEM, <5.0 = no antagonist potency up to 10,000 nM; for Observed Inverse Agonism?: hMC4R, cAMP
T2 sequence (P32245 whole entry): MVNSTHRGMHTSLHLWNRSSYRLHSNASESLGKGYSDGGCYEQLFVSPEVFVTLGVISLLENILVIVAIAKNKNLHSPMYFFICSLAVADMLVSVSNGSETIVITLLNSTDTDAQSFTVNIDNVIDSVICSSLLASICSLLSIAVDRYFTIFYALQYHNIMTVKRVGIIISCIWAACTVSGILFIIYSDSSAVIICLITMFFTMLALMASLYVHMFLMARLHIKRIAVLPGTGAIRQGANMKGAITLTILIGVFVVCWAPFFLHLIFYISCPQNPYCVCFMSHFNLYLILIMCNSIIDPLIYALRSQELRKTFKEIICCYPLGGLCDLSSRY

mMC4R [3] = target: T3, mMC4R (Mus musculus, UniProt P56450); assay: 125I-NDP-MSH competitive binding assay, transfected HEK293 cells, mMC4R; settings: binding IC50 versus control 1 (Asn) or 2 (Dap)
T3 sequence (P56450 whole entry): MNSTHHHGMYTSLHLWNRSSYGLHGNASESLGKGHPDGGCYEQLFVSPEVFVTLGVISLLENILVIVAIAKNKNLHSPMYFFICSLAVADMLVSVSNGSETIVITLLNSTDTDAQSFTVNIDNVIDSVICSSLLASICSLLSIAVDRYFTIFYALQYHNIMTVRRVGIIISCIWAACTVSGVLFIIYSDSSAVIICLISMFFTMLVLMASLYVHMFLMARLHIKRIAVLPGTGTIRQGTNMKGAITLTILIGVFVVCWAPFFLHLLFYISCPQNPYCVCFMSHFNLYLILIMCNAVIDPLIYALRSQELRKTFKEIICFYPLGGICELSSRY

mMC1R [4] = target: T1, mMC1R; assay: 125I-NDP-MSH competitive binding assay, transfected HEK293 cells, mMC1R; settings: binding IC50 versus control 1 (Asn) or 2 (Dap)
hMC4R [5] = target: T2, hMC4R; assay: 125I-NDP-MSH competitive binding assay, transfected HEK293 cells, hMC4R; settings: binding IC50 versus control 1 (Asn) or 2 (Dap)
mMC4R [6] = target: T3, mMC4R; settings: ± SEM; for mMC4R pA2: Example 1, antagonist, Schild analysis with NDP-MSH, <5.0 = no antagonist potency up to 10,000 nM
[7] = Example 2, ± SEM, <5.5 = no antagonist potency up to 10,000 nM
[8] = Example 2, basal to plateau signal, sigmoidal dose-response
[9] = Example 1, ± SEM, <5.0 = no antagonist potency up to 10,000 nM

C[C@@H]1NC(=O)[C@H](CN)NC(=O)CN(Cc2ccccc2)C(=O)[C@H](Cc2ccccc2)NC(=O)[C@H](CCCNC(=N)N)NC(=O)[C@@H]2CCCN2C(=O)[C@H]2CCCN2C(=O)[C@H](Cc2ccccc2)NC1=O [MDE9-93c, c[Pro-Arg-Phe-NPhe-Dap-Ala-Phe-DPro]] was tested, and the “mMC3R pA2” value (mMC3R; [7]) was 7.1 ± 0.1, the “mMC5R pharmacology observed (Partial Agonist / Inverse Agonist)” value (mMC5R; Example 2) was “Inverse” and the “mMC5R inverse agonist, percent decrease from basal” value (mMC5R; [8]) was −10%. The “mMC1R pharmacology observed (Partial Agonist)” value (shortened to “mMC1R pharmacology observed”) (mMC1R [1]; Example 2) was “Partial”.

In the case of C[C@@H]1NC(=O)[C@H](CC(N)=O)NC(=O)[C@H](Cc2ccccc2)NC(=O)[C@H](Cc2ccccc2)NC(=O)[C@H](CS)NC(=O)[C@@H]2CCCN2C(=O)[C@H]2CCCN2C(=O)[C@H](Cc2ccccc2)NC1=O [ZMK 3-18, c[Pro-Cys-Phe-Phe-Asn-Ala-Phe-DPro]] (cyclo(PCFFNAF[dP])), the “mMC3R EC50 (nM)” value (mMC3R; Example 1, agonist, ± SEM, >100,000 = no agonist activity up to 100 μM) is reported as “unable to stimulate”, the “mMC5R pharmacology observed in agonist assay (Inverse Agonist)” value (mMC5R; Example 1) is reported as “inverse agonist activity” and the “mMC5R inverse agonist, percent change from basal” value (mMC5R; Example 1, @ 100 μM, no sigmoidal dose-response curve) is reported as −32%. The “mMC1R percent maximal stimulatory response” value (mMC1R [1]; Example 1, relative to NDP-MSH signal) was 46%, the “hMC4R pA2” value (hMC4R [2]) was 5.8 and 5.8 ± 0.2 and the “Observed Inverse Agonism?” value (hMC4R [2]) was “No”. The “mMC4R Fold Diff” value (mMC4R [3]) was 90, the “mMC1R Fold Diff” value (mMC1R [4]) was 3 and the “hMC4R Fold Diff” value (hMC4R [5]) was 300. For the same molecule, the “mMC4R EC50 (nM)” value (mMC4R [6]; Example 1, agonist, >100,000 = no agonist activity up to 100 μM) was “unable to stimulate” and the “mMC4R pA2” value (mMC4R [6]) was 5.9.

In the case of C[C@@H]1NC(=O)[C@H](CC(N)=O)NC(=O)[C@H](Cc2ccccc2)NC(=O)[C@H](Cc2ccccc2)NC(=O)[C@H](Cc2c[nH]cn2)NC(=O)[C@@H]2CCCN2C(=O)[C@H]2CCCN2C(=O)[C@H](Cc2ccccc2)NC1=O [ZMK 2-96, c[Pro-His-Phe-Phe-Asn-Ala-Phe-DPro]] (cyclo(PHFFNAF[dP])), the “hMC4R pA2” value (hMC4R [2]) is reported as 5.8 and 5.8 ± 0.2, the “Observed Inverse Agonism?” value (hMC4R [2]) is reported as “Yes” and the “mMC4R Fold Diff” value (mMC4R [3]) is reported as 300. The “hMC4R Fold Diff” value (hMC4R [5]) was 300 and the “mMC4R pA2” value (mMC4R [6]) was 5.3 and 5.3 ± 0.1.

In the case of C[C@@H]1NC(=O)[C@H](CC(N)=O)NC(=O)[C@H](Cc2ccccc2)NC(=O)[C@H](Cc2ccccc2)NC(=O)CN(CCCNC(=N)N)C(=O)[C@@H]2CCCN2C(=O)[C@H]2CCCN2C(=O)[C@H](Cc2ccccc2)NC1=O [MDE7-26-1c, c[Pro-NArg-Phe-Phe-Asn-Ala-Phe-DPro]] (cyclo(P[Gly(N-(CH2)3-guanidino)]FFNAF[dP])), the “mMC1R pharmacology observed” value (mMC1R [1]; Example 2) is reported as “Partial” and the “mMC1R partial agonist, percentage of activation relative to NDP-MSH” value (mMC1R [1]; Example 2, maximal signal) is reported as 50% NDP-MSH.

In the case of CC(C)[C@@H]1NC(=O)[C@H](CN)NC(=O)[C@H](Cc2ccccc2)NC(=O)[C@H](Cc2ccccc2)NC(=O)[C@H](CCCNC(=N)N)NC(=O)[C@@H]2CCCN2C(=O)[C@H]2CCCN2C(=O)[C@H](Cc2ccccc2)NC1=O [ZMK 2-85, c[Pro-Arg-Phe-Phe-Dap-Val-Phe-DPro]], the “mMC3R pA2” value (mMC3R; [9]) is reported as 6.1 and 6.1 ± 0.03, the “mMC5R pA2” value (mMC5R; Example 1, reported herein for the first time) is reported as 6.3 and 6.3 ± 0.03 and the “hMC4R pA2” value (hMC4R [2]) is reported as 7.6 and 7.6 ± 0.06. The “Observed Inverse Agonism?” value (hMC4R [2]) was “Yes” and the “mMC4R pA2” value (mMC4R [6]) was 7.5.

With C[C@@H]1NC(=O)[C@H](CC(N)=O)NC(=O)[C@H](Cc2ccccc2)NC(=O)[C@H](Cc2ccccc2)NC(=O)[C@H](CCCNC(=N)N)NC(=O)[C@@H]2CCCN2C(=O)[C@H]2CCCN2C(=O)CN(Cc2ccccc2)C1=O [MDE7-26-5c, c[Pro-Arg-Phe-Phe-Asn-Ala-NPhe-DPro]] the “mMC3R percent maximal stimulatory response” value (mMC3R; Example 2, @ 100 μM) was 60% @ and the “mMC1R percent maximal stimulatory response” value (mMC1R [1]; Example 2) was 85% @.

With C[C@@H]1NC(=O)CN(CCN)C(=O)[C@H](Cc2ccccc2)NC(=O)[C@H](Cc2ccccc2)NC(=O)[C@H](CCCNC(=N)N)NC(=O)[C@@H]2CCCN2C(=O)[C@H]2CCCN2C(=O)[C@H](Cc2ccccc2)NC1=O [MDE9-111c, c[Pro-Arg-Phe-Phe-NDab-Ala-Phe-DPro]] the “mMC5R inverse agonist, percent decrease from basal” value (mMC5R) was −10% and the “mMC1R percent maximal stimulatory response” value (mMC1R [1]; Example 2) was 60% @.

For C[C@@H]1NC(=O)[C@H](CC(N)=O)NC(=O)CN(Cc2ccccc2)C(=O)[C@H](Cc2ccccc2)NC(=O)[C@H](CCCNC(=N)N)NC(=O)[C@@H]2CCCN2C(=O)[C@H]2CCCN2C(=O)[C@H](Cc2ccccc2)NC1=O [MDE9-88c, c[Pro-Arg-Phe-NPhe-Asn-Ala-Phe-DPro]], the “mMC3R pA2” value (mMC3R; [7]) was 6.0 ± 0.1, the “mMC5R pharmacology observed (Partial Agonist / Inverse Agonist)” value (mMC5R; Example 2) was “Inverse” and the “mMC5R pA2” value (mMC5R; Example 2) was 6.1 and 6.1 ± 0.1. For the same molecule, the “mMC5R inverse agonist, percent decrease from basal” value (mMC5R; [8]) was −10% and the “mMC1R pharmacology observed” value (mMC1R [1]; Example 2) was “Partial”.

For C[C@@H]1NC(=O)[C@H](CN)NC(=O)[C@H](Cc2ccccc2)NC(=O)[C@H](Cc2ccccc2)NC(=O)[C@H](CCCNC(=N)N)NC(=O)[C@@H]2CCCN2C(=O)[C@H]2CCCN2C(=O)CN(Cc2ccccc2)C1=O [MDE8-108-7c, c[Pro-Arg-Phe-Phe-Dap-Ala-NPhe-DPro]], the “mMC5R inverse agonist, percent decrease from basal” value (mMC5R) was −10%.

With C[C@@H]1NC(=O)[C@H](CC(N)=O)NC(=O)[C@H](Cc2ccccc2)NC(=O)CN(Cc2ccccc2)C(=O)[C@H](CCCNC(=N)N)NC(=O)[C@@H]2CCCN2C(=O)[C@H]2CCCN2C(=O)[C@H](Cc2ccccc2)NC1=O [MDE9-77c, c[Pro-Arg-NPhe-Phe-Asn-Ala-Phe-DPro]] the “mMC3R pA2” value (mMC3R; [7]) was 5.8 ± 0.1, the “mMC5R pharmacology observed (Partial Agonist / Inverse Agonist)” value (mMC5R; Example 2) was “Inverse” and the “mMC5R inverse agonist, percentage change from basal” value (mMC5R; Example 2, @ 100 μM, no sigmoidal dose-response curve) was −10% @. It also gave an EC50 (mMC1R [1]) of 240 nM.

For C[C@@H]1NC(=O)[C@H](CC(N)=O)NC(=O)[C@H](Cc2ccccc2)NC(=O)[C@H](Cc2ccccc2)NC(=O)[C@H](CCCNC(=N)N)NC(=O)[C@@H]2CCCN2C(=O)[C@H]2CCCN2C(=O)[C@H](Cc2ccccc2)NC1=O [MDE 6-82-3c, c[Pro-Arg-Phe-Phe-Asn-Ala-Phe-DPro]], the “Observed Inverse Agonism?” value (hMC4R [2]) was “Yes”.

C[C@@H]1NC(=O)[C@H](CC(N)=O)NC(=O)[C@H](Cc2ccccc2)NC(=O)[C@H](Cc2ccc(O)cc2)NC(=O)[C@H](CCCNC(=N)N)NC(=O)[C@@H]2CCCN2C(=O)[C@H]2CCCN2C(=O)[C@H](Cc2ccccc2)NC1=O [ZMK 2-110, c[Pro-Arg-Tyr-Phe-Asn-Ala-Phe-DPro]] (cyclo(PRYFNAF[dP])) was tested, and the “mMC3R pA2” value (mMC3R; [9]) was 5.8 and 5.8 ± 0.2, the “mMC5R pharmacology observed in agonist assay (Inverse Agonist)” value (mMC5R; Example 1) was “Inverse” and the “hMC4R pA2” value (hMC4R [2]) was 6.5 and 6.5 ± 0.2. For the same molecule, the “Observed Inverse Agonism?” value (hMC4R [2]) was “Yes”, the “mMC4R Fold Diff” value (mMC4R [3]) was 100 and the “hMC4R Fold Diff” value (hMC4R [5]) was 2000. For the same molecule, the “mMC4R pA2” value (mMC4R [6]) was 6.1 and 6.1 ± 0.03.

For CN1CC(=O)N[C@@H](Cc2ccccc2)C(=O)N2CCC[C@@H]2C(=O)N2CCC[C@H]2C(=O)N[C@@H](CCCNC(=N)N)C(=O)N[C@@H](Cc2ccccc2)C(=O)N[C@@H](Cc2ccccc2)C(=O)N[C@@H](CC(N)=O)C1=O [MDE7-26-4c, c[Pro-Arg-Phe-Phe-Asn-NAla-Phe-DPro]] (cyclo(PRFFN[Sar]F[dP])), the EC50 (mMC1R [1]) was 1000 nM.

In the case of C[C@@H]1NC(=O)[C@H](CN)NC(=O)[C@H](Cc2ccccc2)NC(=O)CN(Cc2ccccc2)C(=O)[C@H](CCCNC(=N)N)NC(=O)[C@@H]2CCCN2C(=O)[C@H]2CCCN2C(=O)[C@H](Cc2ccccc2)NC1=O [MDE9-32c, c[Pro-Arg-NPhe-Phe-Dap-Ala-Phe-DPro]], the “mMC3R pA2” value (mMC3R; [7]) is reported as 6.9 ± 0.3, the “mMC5R pharmacology observed (Partial Agonist / Inverse Agonist)” value (mMC5R; Example 2) is reported as “Partial” and the “mMC1R pharmacology observed” value (mMC1R [1]; Example 2) is reported as “Partial”.

Source: US20210179666A1, “CYCLIC PEPTIDES AND METHODS OF USE THEREOF” (Regents of the University of Minnesota, priority 2019, published 2021)
